Data as given in patent publication US8084459B2, “Substituted quinazolinones for treating neurological conditions” (Prana Biotechnology Ltd, priority 2004, dated 2011).
Structures can show the parent of a compound that is named as a salt.

Legend:
Aβ 1-42 = target: T1, Aβ 1-42 (Homo sapiens, UniProt P05067); test: Assay 1 Fluorometric H2O2 assay (peroxide); assay type: biochemical; conditions: inhibition of H2O2 generation by Aβ with copper
T1 construct: The reaction solutions contained Aβ 1-42 at concentrations
Protocol: Assay 1. Fluorometric H2O2 Assay
A fluorometric assay was used to test the ability of a test compound to inhibit hydrogen peroxide generation by Aβ in the presence of copper based on dichlorofluoroscein diacetate (DCF; Molecular Probes, Eugene Oreg.). The DCF solution (5 mM) in 100% dimethyl sulphoxide (previously purged with argon for 1 hr at 20° C.) was deacetylated in the presence of 0.025M NaOH for 30 min and neutralised at pH 7.4 to a final concentration of 1 mM. Horseradish peroxidase (HRP) stock solution was prepared to 1 μM at pH 7.4. The reactions were carried out in PBS, pH 7.4 in a 96 well plate (total volume=250 μl/well). The reaction solutions contained Aβ 1-42 at concentrations in the range of 50 nM to 1 μM, copper-glycine chelate (Cu-Gly), was prepared by adding CuCl2 to glycine in the ratio of 1:6 and added to the Aβ in the proportion 2Cu-Gly:1Aβ), reducing agents including dopamine (5 μM) or ascorbic acid, deacetylated DCF 100 μM, and HRP, 0.1 μM. 1-10 μM EDTA or another chelator may also be present as a control for free copper, but was not required for the assay to function. The reaction mixture was incubated at 37 C for 60 min. Catalase (4000 units/ml) and H2O2 (1-2.5 μM) standards in PBS pH 7.4 may be included as positive controls. Fluorescence was recorded using a plate reader with excitation and emission filters at […] respectively. H2O2 concentration may be established by comparing fluorescence with the H2O2 standards. Inhibition of Aβ H2O2 production was assayed by including a given concentration of test compound(s) in the test wells.

[1] = Assay 3(d) test compound cytotoxicity (MTS); assay type: cell-based; conditions: BL6Jx129sv, mouse, primary cortical neuronal cultures, cortical neurons; for viability at 4 days, 1 µM: read-out: Assay 3(d) Cytotoxicity (% viable at 1 uM); for viability at 4 days, 10 µM: read-out: Assay 3(d) Cytotoxicity (% viable at 10 uM)
Protocol: Primary Cortical Neuronal Cultures
Cortical cultures were prepared as previously described (White et al., 1998). Embryonic day 14 BL6Jx129sv mouse cortices were removed, dissected free of meninges and dissociated in 0.025% (wt/vol) trypsin. Dissociated cells were plated in 48 well culture plates at a density of 2×10^6 cells/mL in MEM with 25% (vol/vol) FCS and 5% (vol/vol) HS and incubated at 37° C., 2 hrs. Media was then replaced with Neurobasal media (Invitrogen Life Technologies) and B27 supplements (Invitrogen Life Technologies). Cultures were maintained at 37° C. in 5% CO2. Prior to experimentation, the culture medium was replaced with Neurobasal media and B27 minus antioxidants (Invitrogen Life Technologies).
(a) MTS Assay for Cell Viability
Cell viability is determined using the MTS assay. Culture medium is replaced with fresh neurobasal medium plus B27 supplements minus antioxidants. 1/10 volume MTS solution (Cell Titre 96 Aqueous One, Promega Corporation) and incubated at 37° C., 2 hrs. 200 microlitre aliquots are measured with a spectrophotometer at 560 nm.
(d) Assay for Test Compound Cytoxicity
Neuronal cortical cells were cultured for five days as per Assay 2 in NB media and B27 supplement.
On day six the test compounds were added to the neuronal cell cultures in NB media and B27 supplement minus antioxidants.
Test compounds were dissolved in 100% DMSO to a concentration of 2.5 mM (10 mM if excess compound was weighed out per vial—then diluted to 2.5 mM). 2.5 mM stock solution was serially diluted 1 in 10 to give working solutions of 250 uM, 25 uM, 2.5 uM. Test compounds were not added directly to cells, instead they were added to a 48 well ‘Drug Plate’ as comprised below:
Preparation of “Drug Plate”:
• Well 1: 576 ul NB+B27 (no antioxidant)*+24 ul 2.5 uM test compound • Well 2: 576 ul NB+B27 (no antioxidant)+24 ul 25 uM test compound • Well 3: 576 ul NB+B27 (no antioxidant)+24 ul 250 uM test compound • Well 4: 576 ul NB+B27 (no antioxidant)+24 ul 2.5 uM test compound • Well 5: 576 ul NB+B27 (no antioxidant)+24 ul 25 uM test compound • Well 6: 576 ul NB+B27 (no antioxidant)+24 ul 250 uM test compound • Well 7: 576 ul NB+B27 (no antioxidant)+24 ul test compound diluent** • Well 8: 600 ul NB+B27 (no antioxidant)
The Drug Plate was incubated at 37° C. for 15 mins. 200 ul of each well was added in triplicate to the corresponding cell plate. The cell plate was incubated at 37° C., for 4 days, (2 compounds are tested on each plate of cells).
* NB media and B27 (no antioxidants),
** PBT diluent 10% DMSO in NB+B27 (no antioxidants)
On completion of the assay, 1/10 volume MTS was added per well of plate (ie 25 ul/250 ul). The plates were incubated at 37° C. for 2 hrs, and then absorbance was read at 560 nm.

[2] = Assay 16 mouse plasma levels of test compounds; assay type: in vivo; conditions: highest level found in mice (Up to); oral dosing 30 mg/kg described for PB 1075-1077
Protocol: Assay 16. Determination of Mouse Plasma Levels of Test Compounds PB 1075
(§1) Oral administration of PB 1075 at 30 mg/kg, as a suspension in Na-Carboxymethyl Cellulose (CMC) was administered by oral gavage to four mice. Two mice were sacrificed 30 minutes after administration and two mice were sacrificed 60 minutes after administration. Blood was obtained by cardiac puncture and plasma separated by centrifugation.
The concentration of PB 1075 was determined by LC/MS using the triple quadrupole instrument. The mobile phase consisted of an acetonitrile (ACN)/water gradient (containing 0.05% Formic acid) and the column was a Phenomenex Lunea 5 um C8 (50×2 mm) column.
The supplied acute toxicity mouse plasma samples were directly injected following a protein precipitation with ACN. The analytical method in plasma was linear in the range of 10 to 10,000 ng/ml (R^2=0.994). Recovery of PB 1075 from plasma was ˜100%.
as §1, with “1076” for “1075”
The concentration of PB 1076 was determined by LC/MS using the triple quadrupole instrument. The mobile phase consisted of an acetonitrile (ACN)/water gradient (containing 0.05% Formic acid) and the column was a Phenomenex Luna 5 μM C8 (50×2 mm) column.
The mouse plasma samples were directly injected following a protein precipitation with ACN. The analytical method in plasma was linear in the range of 500 to 10,000 ng/ml (R^2=0.999). Recovery of PB 1076 from plasma was ˜85%.
as §1, with “1077” for “1075”
The concentration of PB 1077 was determined by LC/MS using the triple quadrupole instrument. The mobile phase consisted of an acetonitrile (ACN)/water gradient (containing 0.05% Formic acid) and the column was a Phenomenex Luna 5 μM C8 (50×2 mm) column.
The mouse plasma samples were directly injected following a protein precipitation with ACN. The analytical method in plasma was linear in the range of 5 to 5,000 ng/ml (R^2=0.999). Recovery of PB 1077 from plasma was ˜92%.

T1 sequence (P05067 672-713 limits assumed): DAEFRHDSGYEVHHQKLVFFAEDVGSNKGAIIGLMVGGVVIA

Compound | IC50 (Aβ 1-42) [nM] | viability at 4 days, 1 µM [1] [%] | viability at 4 days, 10 µM [1] [%] | Assay 16 Mice plasma concentration [2]
CN1CCCC1CCn1cnc2c(O)c(Cl)cc(Cl)c2c1=O (centres unmarked) [Compound 1078] | 730 | 94 | 94 | Up to 262 ng/mL in
Cc1cnc(-n2cnc3c(O)c(Cl)cc(Cl)c3c2=O)s1 [Compound 1082] | 4500 | 94 | 70 | 
Cn1c(-n2cnc3c(O)c(Cl)cc(Cl)c3c2=O)nc2ccccc21 [Compound 1083] | 2300 |  | 97 | 
O=c1c2c(Cl)cc(Cl)c(O)c2ncn1N1CCCCC1 [Compound 1086] | 390 | 98 | 51 | 
O=c1c2c(Cl)cc(Cl)c(O)c2ncn1-c1cccnc1 [Compound 1092] | 860 | 95 | 81 | 
COc1ccc(-n2cnc3c(O)c(Cl)cc(Cl)c3c2=O)cn1 [Compound 1093] | 390 | 122 | 13 | 
Br.Cc1cccnc1Cn1cnc2c(O)c(Cl)cc(Cl)c2c1=O [Compound 1098] | 440 | 99 | 88 | 
Nn1cnc2c(O)c(Cl)cc(Cl)c2c1=O [Compound 1099, 3-Amino-5,7-dichloro-8-hydroxy-3H-quinazolin-4-one hydrobromide] | 690 |  |  | 
Br.CC(C)Cn1cnc2c(O)c(Cl)cc(Cl)c2c1=O [Compound 1107] | 400 | 92 | 59 | 
Br.CC(C)n1cnc2c(O)c(Cl)cc(Cl)c2c1=O [Compound 1108] | 250 | 100 | 53 | 
CCN(CC)CCn1cnc2c(O)c(Cl)cc(Cl)c2c1=O [Compound 1110] | 460 |  | 77 | 
CCCCn1cnc2c(O)c(Cl)cc(Cl)c2c1=O [Compound 1111] | 320 | 93 | 67 | 
Br.CCC(C)n1cnc2c(O)c(Cl)cc(Cl)c2c1=O (centres unmarked) [Compound 1112] | 330 | 89 | 46 | Upto 2949 ng/mL in
CC(Br)CCn1cnc2c(O)c(Cl)cc(Cl)c2c1=O (centres unmarked) [Compound 1114] | 580 |  | 73 | 
CCn1cnc2c(O)c(Cl)cc(Cl)c2c1=O [Compound 1115] | 730 | 101 | 73 | 
C/C=C/Cn1cnc2c(O)c(Cl)cc(Cl)c2c1=O [Compound 1126] | 370 |  |  | 
CCn1cnc2c(O)ccc(Cl)c2c1=O [Compound 1130] | 880 |  |  | 
CCCn1cnc2c(O)ccc(Cl)c2c1=O [Compound 1131] | 500 |  |  | 
CN(C)Cc1nc2c(O)c(Cl)cc(Cl)c2c(=O)[nH]1 [Compound 1147] | 260 |  |  | 
CNCc1nc2c(O)c(Cl)cc(Cl)c2c(=O)n1C [Compound 1161] | 140 |  |  | 
